Values of other authors, collected in patent publication US7445902B2, “Fluorescent nucleotide analogues” (GE Healthcare UK Limited, priority 2004, dated 2008).

Tested on: receptor-Gαs/Gαi fusion proteins
Conditions: binding to receptor-Gαs/Gαi fusion proteins in the expression systems employed

Row | fold lower affinity than GppNHp (relative to GppNHp) | fold lower affinity than GTPγS (relative to GTPγS) | Substance
1 | 17-55 fold |  | BODIPY-FL-guanosine 5′-[β,γ-imido]triphosphate [B-GppNHp]
2 |  | 1,100-5,600 fold | BODIPY-FL-guanosine 5′-[γ-thio]triphosphate [B-GTPγS]
